Entries after “also recorded” stand apart in the source; their conditions may differ.
What was measured:
IGF-1R and IR = experiment: Biochemical potency against IGF-1R and IR; settings: comparison of IGF-1R and IR
Akt pathway = experiment: Downstream signaling (pAkt, pErk) in tumor cell lysates, Western blotting; format: cell-based, human; settings: H322 NSCLC and HT-29 CRC cells; OSI-906 3 uM or MAB-391 2 ug/ml; 24 hours
Procedure: Cell extracts were prepared by detergent lysis (50 mM Tris-HCl, pH 8.0, 150 mM NaCl, 1% NP-40, 0.5% sodium deoxycholate, 0.1% SDS, containing protease inhibitor (P8340, Sigma, St. Louis, Mo.) and phosphatase inhibitor (P5726, Sigma, St. Louis, Mo.) cocktails. The soluble protein concentration was determined by micro-BSA assay (Pierce, Rockford Ill.). Protein immunodetection was performed by electrophoretic transfer of SDS-PAGE separated proteins to nitrocellulose, incubation with antibody, and chemiluminescent second step detection (PicoWest; Pierce, Rockford, Ill.). The antibodies included: phospho-Akt(473) and total Akt. Both antibodies were obtained from Cell Signaling Technology, Inc. (Danvers, Mass.). For analysis of an agent's effect on the phosphorylation of downstream signaling proteins, cell lines were grown to approximately 70% confluency, at which time the indicated agent was added at the indicated concentration, and cells were incubated at 37° C. for 24 hours. The media was removed, cells were washed two times with PBS, and cells were lysed as previously described.

IGF-1R = biological target: T1, IGF-1R (Homo sapiens, UniProt P08069); experiment: IGF-1R phosphorylation (pIGF-1R) in tumor cells, RTK capture array; format: cell-based; settings: OSI-906 3 uM, 24 hours
T1 construct: endogenous in cells; host or cells: A673, H322, HT-29 tumor cells
T1 sequence (P08069 31-1367): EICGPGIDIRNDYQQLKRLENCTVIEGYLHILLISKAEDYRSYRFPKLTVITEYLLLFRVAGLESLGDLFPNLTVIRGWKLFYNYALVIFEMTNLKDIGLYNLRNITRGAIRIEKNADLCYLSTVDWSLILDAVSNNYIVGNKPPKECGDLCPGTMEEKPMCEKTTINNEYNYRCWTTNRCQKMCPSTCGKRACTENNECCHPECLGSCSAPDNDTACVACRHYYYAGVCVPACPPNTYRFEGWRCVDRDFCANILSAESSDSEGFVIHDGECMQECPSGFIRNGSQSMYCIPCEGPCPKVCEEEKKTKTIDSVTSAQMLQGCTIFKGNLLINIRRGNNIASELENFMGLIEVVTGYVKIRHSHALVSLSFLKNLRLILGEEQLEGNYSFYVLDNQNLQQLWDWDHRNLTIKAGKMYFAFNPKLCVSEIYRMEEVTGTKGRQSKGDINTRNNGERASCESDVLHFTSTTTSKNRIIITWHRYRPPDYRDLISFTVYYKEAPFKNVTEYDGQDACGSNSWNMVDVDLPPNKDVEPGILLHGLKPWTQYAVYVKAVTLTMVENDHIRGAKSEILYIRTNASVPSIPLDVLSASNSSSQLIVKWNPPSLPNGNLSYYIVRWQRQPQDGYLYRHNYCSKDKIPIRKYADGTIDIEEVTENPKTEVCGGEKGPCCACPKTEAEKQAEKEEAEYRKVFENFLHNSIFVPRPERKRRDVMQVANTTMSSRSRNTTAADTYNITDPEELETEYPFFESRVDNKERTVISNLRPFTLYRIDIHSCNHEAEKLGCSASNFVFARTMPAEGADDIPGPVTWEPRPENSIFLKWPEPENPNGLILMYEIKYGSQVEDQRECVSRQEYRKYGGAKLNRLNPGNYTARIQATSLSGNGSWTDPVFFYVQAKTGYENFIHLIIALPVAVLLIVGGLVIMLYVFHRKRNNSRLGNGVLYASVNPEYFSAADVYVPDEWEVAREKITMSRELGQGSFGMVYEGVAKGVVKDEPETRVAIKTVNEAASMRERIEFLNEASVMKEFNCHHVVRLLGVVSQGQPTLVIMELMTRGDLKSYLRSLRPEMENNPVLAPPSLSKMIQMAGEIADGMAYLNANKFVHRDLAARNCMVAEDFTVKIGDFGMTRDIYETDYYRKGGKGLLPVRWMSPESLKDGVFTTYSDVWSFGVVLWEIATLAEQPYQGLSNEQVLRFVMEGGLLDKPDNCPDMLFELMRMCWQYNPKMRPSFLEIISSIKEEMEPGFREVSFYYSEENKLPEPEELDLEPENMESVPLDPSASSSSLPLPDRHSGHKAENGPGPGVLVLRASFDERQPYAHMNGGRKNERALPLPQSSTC
Source text: The media was removed, cells were washed two times with PBS, and cells were lysed as previously described.

inhibition of IGF-1R (pIGF-1R) (IGF-1R; A673 Ewing's Sarcoma cells): inhibits both IR and IGF-1R
SMILES: C[C@]1(O)C[C@@H](c2nc(-c3ccc4ccc(-c5ccccc5)nc4c3)c3c(N)nccn32)C1 [OSI-906, cis-3-[8-amino-1-(2-phenyl-quinolin-7-yl)-imidazo[1,5-a]pyrazin-3-yl]-1-methyl-cyclobutanol]
biochemical potencies against IGF-1R and IR (IGF-1R and IR): similar
inhibition of the Akt pathway (pAkt) (Akt pathway): greater blockade of the Akt pathway; also recorded: greater capacity to inhibit the Akt pathway
inhibition of pIGF-1R (IGF-1R; H322 and HT-29 cells (FIG. 2)): robust inhibition of both pIR and pIGF-1R

Source: US20120189641A1, “COMBINATION ANTI-CANCER THERAPY” (OSI PHARMACEUTICALS, LLC, priority 2009, published 2012)
